Assay [1] addresses T1, human STING protein (140-379) (Homo sapiens, UniProt Q86WV6, H232R).
T1 construct: 6XHIS-SUMO-hSTING (140-379); made in house; host or cells: BL-21(DE3) E. coli, pET vector
The assay can be described thus: Radiometric filtration binding competition assay (WT_FBA_HIS-SUMO-hSWAT). As to conditions: read-out: WT-hSWAT IC50. Here is the method:
A radiometric filtration binding competition assay was performed to quantify the binding affinity of compounds of the present application for the human or mouse STING protein, or associated HAQ human isoform. The competition format filtration binding assay detects the ability of small molecule compounds from binding to and inhibiting the subsequent binding of a tritiated [H3] […] The resulting dose response was fit by non-linear regression to determine an IC50 value, from which a Ki value for each compound was extrapolated.
Briefly, the recombinant C-terminal ligand binding domain of the human STING protein (140-379) or mouse STING protein (139-328) [0.5 μM] was incubated in the presence of a compound of the present application (8 point, 2 fold dilution starting at 300 μM) for 30 min or under control conditions. […] The resulting complexes were then filtered, dried, and scintillation fluid was added and the remaining radio signal was measured to determine the degree of compound ligand inhibition. This assay format was optimized for both the WT and HAQ isoforms of the human protein and the mouse orthologue protein.
Parameters optimized: • a. Form of protein: 6×HIS-SUMO tag or untagged • b. Concentration of target protein: Minimum concentration that achieved >80 max signal • c. Assay DMSO concentration: 10%-0.1% • d. Assay Buffer: Base (Tris or phosphate), Salt concentration, +/−Tween (0.1-2%) • e. […] Probe Concentration: Minimum concentration that achieved max assay window • g. Assay Format: Scintillation Proximity Bead or Filtration Binding Plate • h. Assay Plate: 384 vs 96 well format • i. Assay incubation times for successive incubation steps
WT-hSWAT: WT_FBA_HIS-SUMO-hSWAT IC50 (μM) (“WT”=Wild-type); and WT-mSWAT: MOUSE_FBA_HIS-SUMO-mSWAT C50 (μM) which is the mouse isoform of STING protein.

For assay [2], the target named is T2, STING protein (Homo sapiens, UniProt Q86WV6, H232R).
T2 construct: host or cells: THP-1 dual reporter cells, TMEM173 modified from HAQ to R232 (THP1-dual-KI R232)
Description: Cell based reporter assay of IRF activation (THP1-dual-KI R232, IRF luciferase). To be noted: THP-1; read-out: THP1-dual-KI R232_IRF(Luciferase)_Activity Maximum measured (%). The source says:
Cell reporter assays were developed to measure the ability of compounds of the application to activate the STING protein and activate both IRF/IFN and the NFkB signaling pathways in the myeloid derived cell line THP-1, which is commercially available from several suppliers. Briefly, THP-1 monocytes were transfected and selected for stable integration of 2 reporter constructs. Clones incorporating stably integrated vectors were further selected by antibiotic resistance to blastocidin and zeocin. The reporter constructs included: (1) firefly luciferase reporter gene under the control of an ISG54 promoter fused to five interferon (IFN)-stimulated response elements to measure IRF transcription factor binding activity and (2) secreted embryonic alkaline phosphatase reporter gene under transcription control of an IFN-beta minimal promoter fused to 5 copies of the NFkB consensus transcriptional response element and 3 copies of the c-Rel binding site.
The resulting THP-1 cell line was further modified to incorporate 3 amino acid point mutations (H71R A230G Q293R). This modification of the native TMEM173 gene in THP-1 cells (HAQ) was designed to produce a cell reporter that expressed the most common allelic variant in the human population (THP-1 R232, available from InvivoGen). Alternatively, the TMEM173 gene was knocked out to provide a congenic control to counter-screen for compound activation that was independent of the STING protein (THP-1 STING KO).
Once cell lines were established, reporter assay protocols were developed and optimized to screen small molecule compounds for agonist activity. Assay optimization for efficacy and Z′ value included titration of the following parameters:
1. No pre-activation with PMA
2. […]cells/well in 96 well plate format
7. Cell Titer Glo reagent (Promega) following supermatant removal
9. 8 point, 2 fold, duplicate starting at 150 μM PP28T

The target of assay [3] is T3, hSTING-R232 (Homo sapiens, UniProt Q86WV6, H232R).
T3 construct: recombinant mouse or human STING protein (aa140-379); 6xHis-SUMO elsewhere) (cleaved yes); made in house
The assay can be described thus: STING Differential Scanning Fluorimetry (DSF) assay, human. In kind it is binding. As to conditions: human STING R232-WT, 5 μM protein. Here is the method:
A STING DSF assay was performed to determine protein thermostability shift in response to small molecule ligand binding. A STING thermostability shift assay based on differential scanning fluorimetry was used to measure (1) the net shift in melting temperature (ΔTm)between the apo and ligand-bound states of the STING protein and (2) the concentration of the thermal denaturation transition (FC50) as a surrogate measure of binding affinity (Kd). Briefly, recombinant mouse or human STING protein (aa140-379) comprising the C-terminal binding domain (R232-WT) were purified by affinity chromatography and further processed to remove the purification tag, followed by gel filtration to achieve purity >95%. Protein in assay buffer was transferred to a 384 well plate and incubated with the hydrophobic fluorescent dye SYBR Orange. A temperature ramp was applied to the plate and the resulting dye fluorescence was plotted as a function of temperature. The first derivative of this function (dF/dT) was then used to extrapolate the melting temperature of the protein at various concentrations of compound and determine the thermal denaturation profile of a protein/compound complex.
2. 5 μM purified Target STING Protein
4. Buffer: 100 mM NaCl, 30 mM HEPES, pH 7.5
5. Thermal Ramp: 0.5° C./min
7. 11 point, 2 fold dilution, duplicate, 300 μM high concentrations
Background: Differential scanning fluorimetry follows unfolding on heating by fluorescence.

Results on 17 compounds are retold here after patent US20220251079A1, “BENZO[B][1,8]NAPHTHYRIDINE ACETIC ACID DERIVATIVES AND METHODS OF USE” (STINGTHERA, INC., priority 2019, published 2022).

One may read the IC50 as the concentration that gives 50% inhibition.

T2 sequence (Q86WV6 whole entry H232R): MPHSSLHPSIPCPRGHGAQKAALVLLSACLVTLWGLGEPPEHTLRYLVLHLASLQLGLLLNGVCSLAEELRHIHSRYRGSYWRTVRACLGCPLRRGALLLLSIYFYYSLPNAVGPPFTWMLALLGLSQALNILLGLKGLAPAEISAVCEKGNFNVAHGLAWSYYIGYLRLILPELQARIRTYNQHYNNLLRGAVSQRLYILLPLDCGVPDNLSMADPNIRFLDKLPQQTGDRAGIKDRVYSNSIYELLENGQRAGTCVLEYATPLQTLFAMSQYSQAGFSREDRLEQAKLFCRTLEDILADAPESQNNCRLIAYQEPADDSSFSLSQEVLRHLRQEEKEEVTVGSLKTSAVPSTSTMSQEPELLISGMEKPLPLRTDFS
T3 sequence (Q86WV6 140-379 H232R): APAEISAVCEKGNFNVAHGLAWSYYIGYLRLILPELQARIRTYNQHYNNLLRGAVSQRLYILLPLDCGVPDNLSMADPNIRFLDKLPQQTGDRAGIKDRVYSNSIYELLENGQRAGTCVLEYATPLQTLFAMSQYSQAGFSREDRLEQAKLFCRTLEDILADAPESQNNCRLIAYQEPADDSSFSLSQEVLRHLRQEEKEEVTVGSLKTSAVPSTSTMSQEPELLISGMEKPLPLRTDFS
T1 sequence (Q86WV6 140-379 H232R): as above

With `CSc1c(Cl)ccc2c(=O)c3ccc(N(C)c4ccccc4)nc3n(CC(=O)O)c12` [Compound 73, sodium 2-(8-chloro-2-(methyl(phenyl)amino)-9-(methylthio)-5-oxobenzo[b][1,8]naphthyridin-10(5H)-yl)acetate], the IC50 in assay [1] is under 20 µM. Besides, in assay [2], the Emax was over 50%. In assay [3], the “WT_DSF_hSWAT Tm Shift (° C.)” value is listed as “D (“D” > 7° C.)”.
On the same counts, the results for `CCOc1nc2c(cc1Cl)c(=O)c1ccc(Cl)c(N(C)C)c1n2CC(=O)O` [Compound 18, 2-(3,8-dichloro-9-(dimethylamino)-2-ethoxy-5-oxobenzo[b][1,8]naphthyridin-10(5H)-yl) acetic acid] are under 20 µM, over 50% and “C (“C” = 2-7° C.)”.
The like results for `CCOc1c(Cl)ccc2c(=O)c3ccc(NCC4CCOCC4)nc3n(CC(=O)O)c12` [Compound 60, sodium 2-(8-chloro-9-ethoxy-5-oxo-2-(((tetrahydro-2H-pyran-4-yl)methyl)amino)benzo[b][1,8]naphthyridin-10(5H)-yl)acetate] were, in that order, 20 to 100 µM, over 50% and “D (“D” > 7° C.)”.
The like results for `CSc1c(Cl)ccc2c(=O)c3ccc(N(C)C4CC(OC(F)F)C4)nc3n(CC(=O)O)c12` (stereo not drawn) [Compound 45, Sodium 2-(8-chloro-2-((3-(difluoromethoxy)cyclobutyl)(methyl)amino)-9-(methylthio)-5-oxobenzo[b][1,8]naphthyridin-10(5H)-yl)acetate] were, in that order, 20 to 100 µM, over 50% and “D (“D” > 7° C.)”.
In the case of `CCOc1c(Cl)ccc2c(=O)c3ccc(C(C)=O)nc3n(CC(=O)O)c12` [Compound 31, sodium 2-(2-acetyl-8-chloro-9-ethoxy-5-oxobenzo[b][1,8]naphthyridin-10(5H)-yl)acetate], in assay [1], the IC50 lay within 100 to 300 µM. Besides, the Emax in assay [2] is over 50%. Moreover, the “WT_DSF_hSWAT Tm Shift (° C.)” value in assay [3] is listed as “C (“C” = 2-7° C.)”.
The like results for `Cc1nccn1CCN(C)c1ccc2c(=O)c3ccc(Cl)c(N(C)C)c3n(CC(=O)O)c2n1` [Compound 82, sodium 2-[8-chloro-9-(dimethylamino)-2-{methyl[2-(2-methylimidazol-1-yl)ethyl]amino}-5-oxobenzo[b]1,8-naphthyridin-10-yl]acetate] were, in that order, 100 to 300 µM, 5 to 25% and “D (“D” > 7° C.)”.
In the case of `CC(C)c1ccc2c(=O)c3ccc(Cl)c(N(C)C)c3n(CC(=O)O)c2n1` [Compound 7], in assay [1], the IC50 is under 20 µM. In assay [2], the Emax was over 50%. Moreover, in assay [3], the “WT_DSF_hSWAT Tm Shift (° C.)” value is “D (“D” > 7° C.)”.
In the case of `CSc1c(Cl)ccc2c(=O)c3ccc(C4(C)CC4)nc3n(CC(=O)O)c12` [Compound 68, sodium 2-(8-chloro-2-(1-methylcyclopropyl)-9-(methylthio)-5-oxobenzo[b][1,8]naphthyridin-10(5H)-yl)acetate], the half-maximal inhibitory concentration (IC50) in assay [1] was under 20 µM. For the same compound, the Emax in assay [2] is over 50%. In addition, in assay [3], the “WT_DSF_hSWAT Tm Shift (° C.)” value is “D (“D” > 7° C.)”.
The like results for `CO[C@H]1C[C@@H](N(CC2CC2)c2ccc3c(=O)c4ccc(Cl)c(SC)c4n(CC(=O)O)c3n2)C1` [Compound 43, sodium 2-(8-chloro-2-((cyclopropylmethyl)(3-methoxycyclobutyl)amino)-9-(methylthio)-5-oxobenzo[b][1,8]naphthyridin-10(5H)-yl)acetate] were, in that order, under 20 µM, over 50% and “D (“D” > 7° C.)”.
The like results for `CSc1ccc2c(=O)c3ccc(C(C)(C)C)nc3n(CC(=O)O)c2c1SC` [Compound 13] were, in that order, over 300 µM, over 50% and “B (“B” = 0-2° C.)”.
Regarding `CSc1c(Cl)ccc2c(=O)c3ccc(N(C)C)nc3n(CC(=O)O)c12` [Compound 22, sodium 2-(8-chloro-2-(dimethylamino)-9-(methylthio)-5-oxobenzo[b][1,8]naphthyridin-10(5H)-yl)acetate], in assay [1], the IC50 lay in the range of 20 to 100 µM. The Emax in assay [2] was over 50%. Besides, the “WT_DSF_hSWAT Tm Shift (° C.)” value in assay [3] is reported as “D (“D” > 7° C.)”.
Regarding `COCCN(CC(F)F)c1ccc2c(=O)c3ccc(Cl)c(SC)c3n(CC(=O)O)c2n1` [Compound 51, sodium 2-(8-chloro-2-((2,2-difluoroethyl)(2-methoxyethyl)amino)-9-(methylthio)-5-oxobenzo[b][1,8]naphthyridin-10(5H)-yl)acetate], in assay [1], the IC50 was 20 to 100 µM. For the same compound, the Emax in assay [2] was over 50%. In addition, in assay [3], the “WT_DSF_hSWAT Tm Shift (° C.)” value is “D (“D” > 7° C.)”.
On the same counts, the results for `CSc1c(Cl)ccc2c(=O)c3ccc(NCC4CC(F)(F)C4)nc3n(CC(=O)O)c12` [Compound 54, Sodium 2-(8-chloro-2-(((3,3-difluorocyclobutyl)methyl)amino)-9-(methylthio)-5-oxobenzo[b][1,8]naphthyridin-10(5H)-yl)acetate] are 20 to 100 µM, over 50% and “D (“D” > 7° C.)”.
`CN(C)c1c(Cl)ccc2c(=O)c3ccc(Nc4ccccc4)nc3n(CC(=O)O)c12` [Compound 6]: the IC50 in assay [1] was under 20 µM. Besides, the Emax in assay [2] was over 50%. For the same compound, the “WT_DSF_hSWAT Tm Shift (° C.)” value in assay [3] was “D (“D” > 7° C.)”.
As for `CO[C@H]1C[C@@H](N(C)c2nc3c(cc2Cl)c(=O)c2ccc(Cl)c(SC)c2n3CC(=O)O)C1` [Compound 77, 2-(3,8-dichloro-2-(((1s,3s)-3-methoxycyclobutyl)(methyl)amino)-9-(methylthio)-5-oxobenzo[b][1,8]naphthyridin-10(5H)-yl)acetic acid], the IC50 in assay [1] was under 20 µM. For the same compound, in assay [2], the Emax was over 50%. The “WT_DSF_hSWAT Tm Shift (° C.)” value in assay [3] is recorded as “D (“D” > 7° C.)”.
As for `CSc1c(Cl)ccc2c(=O)c3ccc(C(C)(C)C)nc3n(CC(=O)O)c12` [Compound 12], in assay [1], the IC50 is under 20 µM. Further, the Emax in assay [2] was over 50%. The “WT_DSF_hSWAT Tm Shift (° C.)” value in assay [3] is listed as “D (“D” > 7° C.)”.
On the same counts, the results for `COCCN(c1ccc2c(=O)c3ccc(Cl)c(SC)c3n(CC(=O)O)c2n1)C1CC1` [Compound 28, sodium 2-(8-chloro-2-(cyclopropyl(2-methoxyethyl)amino)-9-(methylthio)-5-oxobenzo[b][1,8]naphthyridin-10(5H)-yl)acetate] are under 20 µM, over 50% and “D (“D” > 7° C.)”.
